Counter-ions that a name gives are not always drawn.

By IC50 is commonly meant the midpoint of a concentration-inhibition curve.

In one assay the target is SHP2 (Homo sapiens (Human), UniProt Q06124). The assay can be described thus: SHP2 Biochemical Assay (DiFMUP conversion, pIRS1 activating peptide).
Chain of SHP2 (Q06124 whole entry): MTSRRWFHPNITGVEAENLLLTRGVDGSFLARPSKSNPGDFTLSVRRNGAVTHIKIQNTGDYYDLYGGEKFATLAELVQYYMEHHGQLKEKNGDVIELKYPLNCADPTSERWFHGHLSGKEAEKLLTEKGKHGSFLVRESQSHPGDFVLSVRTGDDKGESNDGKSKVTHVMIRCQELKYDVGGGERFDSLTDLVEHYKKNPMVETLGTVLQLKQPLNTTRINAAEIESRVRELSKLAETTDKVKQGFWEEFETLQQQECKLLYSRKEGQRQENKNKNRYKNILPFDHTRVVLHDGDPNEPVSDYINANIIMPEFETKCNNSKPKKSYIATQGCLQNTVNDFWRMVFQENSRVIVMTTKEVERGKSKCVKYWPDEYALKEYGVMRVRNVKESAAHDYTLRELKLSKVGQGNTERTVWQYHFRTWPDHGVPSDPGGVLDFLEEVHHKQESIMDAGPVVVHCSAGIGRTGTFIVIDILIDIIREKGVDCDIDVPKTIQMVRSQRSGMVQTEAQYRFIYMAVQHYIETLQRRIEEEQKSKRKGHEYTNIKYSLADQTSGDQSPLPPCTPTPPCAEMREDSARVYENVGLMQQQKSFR
Settings: not given
As to the method:
SHP2 activity was monitored by measuring the conversion of the surrogate substrate 6,8-difluoromethylumbelliferyl phosphate (DiFMUP) to the fluorescent product, 6,8-difluoromethylumbelliferone (DiFMU).
SHP2 was pre-incubated with test compounds and the activating peptide pIRS1 (H2N-LN(pY)IDLDLV-(PEG)8-LST(pY)ASINFQK-amide) for 30 min, prior to addition of the […] (DiFMUP), (Thermo Fisher D6567). […] Rates of reaction were then measured over 30 min by monitoring fluorescence on a BMG Pherastar reader at excitation 360 nm/emission 450 nm. IC50 values were calculated from the normalized dose-response plots using four parameter logistic curve fit.
For `Cc1nc2ccc(-c3n[nH]c4nc(N5[C@H]6CC[C@@H]5[C@@H](F)[C@@H](N)C6)c(CO)nc34)c(Cl)c2s1` [Example 98, {6-[(1R,2S,3S,5S)-3-amino-2-fluoro-8-azabicyclo[3.2.1]octan-8-yl]-3-(7-chloro-2-methyl-1,3-benzothiazol-6-yl)-1H-pyrazolo[3,4-b]pyrazin-5-yl}methanol], half-maximal inhibition (IC50) required 4 nM.

`COc1cnc2ccc(-c3n[nH]c4nc(N5[C@@H]6CC[C@H]5[C@@H](F)[C@@H](N)C6)c(C)nc34)c(Cl)c2n1` [Example 121, (1S,2S,3S,5R)-8-[3-(5-chloro-3-methoxyquinoxalin-6-yl)-5-methyl-1H-pyrazolo[3,4-b]pyrazin-6-yl]-2-fluoro-8-azabicyclo[3.2.1]octan-3-amine] yielded an IC50 of 14 nM.

Regarding `Cn1ccnc1Cn1cc2c(Cl)c(-c3c[nH]c4nc(N5[C@@H]6CC[C@H]5C[C@@H](N)C6)cnc34)ccc2n1` [Example 68, endo-8-(7-{4-chloro-2-[(1-methyl-1H-imidazol-2-yl)methyl]-2H-indazol-5-yl}-5H-pyrrolo[2,3-b]pyrazin-3-yl)-8-azabicyclo[3.2.1]octan-3-amine, trihydrochloride salt], the IC50 came out at 21 nM.

The same assay, now with this note: DiFMUP substrate, 0.25 μM pIRS1 peptide, 30 min pre-incubation; average where more than one data point; read-out: SHP2 (IC50).
As to `Cn1nc2ccc(-c3n[nH]c4nc(N5[C@@H]6CC[C@H]5[C@H](F)[C@@H](N)C6)c(CO)nc34)c(Cl)c2c1Cl` [Example 102, {6-[(1S,2R,3S,5R)-3-amino-2-fluoro-8-azabicyclo[3.2.1]octan-8-yl]-3-(3,4-dichloro-2-methyl-2H-indazol-5-yl)-1H-pyrazolo[3,4-b]pyrazin-5-yl}methanol], the IC50 stood at 15 nM.

For the compound `Cn1cc2c(Cl)c(-c3c[nH]c4nc(N5CCC(N)CC5)cnc34)ccc2n1` [Example 4, 1-[7-(4-chloro-2-methyl-2H-indazol-5-yl)-5H-pyrrolo[2,3-b]pyrazin-3-yl]piperidin-4-amine], the IC50 was found to be 16 nM.

For `COc1cnc2ccc(-c3n[nH]c4nc(N5[C@@H]6CC[C@H]5[C@@H](F)[C@@H](N)C6)c(CO)nc34)c(Cl)c2n1` [Example 109, {6-[(1S,2S,3S,5R)-3-amino-2-fluoro-8-azabicyclo[3.2.1]octan-8-yl]-3-(5-chloro-3-methoxyquinoxalin-6-yl)-1H-pyrazolo[3,4-b]pyrazin-5-yl}methanol], the IC50 turned out to be 11 nM.

Take `Cc1nc2c(-c3ccc4nn(C)cc4c3Cl)c[nH]c2nc1N1[C@@H]2CC[C@H]1C[C@@H](N)C2` [Example 17, endo-8-[7-(4-chloro-2-methyl-2H-indazol-5-yl)-2-methyl-5H-pyrrolo[2,3-b]pyrazin-3-yl]-8-azabicyclo[3.2.1]octan-3-amine]: the IC50 turned out to be 20 nM.

As for `Cc1c(-c2n[nH]c3nc(N4[C@@H]5CC[C@H]4C[C@@H](N)C5)c(CO)nc23)ccc2nn(C)c(Cl)c12` [Example 142, {6-[endo-3-amino-8-azabicyclo[3.2.1]octan-8-yl]-3-(3-chloro-2,4-dimethyl-2H-indazol-5-yl)-1H-pyrazolo[3,4-b]pyrazin-5-yl}methanol], the IC50 stood at 13 nM.

Turning to `COc1cnc2ccc(-c3c[nH]c4nc(N5[C@@H]6CC[C@H]5C[C@@H](N)C6)cnc34)c(Cl)c2n1` [Example 107, endo-8-[7-(5-chloro-3-methoxyquinoxalin-6-yl)-5H-pyrrolo[2,3-b]pyrazin-3-yl]-8-azabicyclo[3.2.1]octan-3-amine, hydrochloride], the IC50 was 22 nM.

Consider `Cc1nc2ccc(-c3c[nH]c4nc(N5[C@@H]6CC[C@H]5C[C@@H](N)C6)cnc34)c(Cl)c2c(=O)[nH]1` [Example 21, 6-{3-[endo-3-amino-8-azabicyclo[3.2.1]octan-8-yl]-5H-pyrrolo[2,3-b]pyrazin-7-yl}-5-chloro-2-methyl-3,4-dihydroquinazolin-4-one], for which the IC50 is 11 nM.

Turning to `Cc1nc2c(-c3ccc4nn(C)cc4c3Cl)c[nH]c2nc1N1[C@@H]2CC[C@H]1C[C@H](N)C2` [Example 20, exo-8-[7-(4-chloro-2-methyl-2H-indazol-5-yl)-2-methyl-5H-pyrrolo[2,3-b]pyrazin-3-yl]-8-azabicyclo[3.2.1]octan-3-amine], the IC50 is 10 nM.

In the case of `Cn1cc2c(Cl)c(-c3c[nH]c4nc(N5CCC(C)(N)CC5)cnc34)ccc2n1` [Example 5, 1-[7-(4-chloro-2-methyl-2H-indazol-5-yl)-5H-pyrrolo[2,3-b]pyrazin-3-yl]-4-methylpiperidin-4-amine], the IC50 was determined as 18 nM.

With `Cn1cc2c(Cl)c(-c3c[nH]c4nc(N5[C@@H]6CC[C@H]5C[C@H](CN)C6)cnc34)ccc2n1` [Example 1, 1-[exo-8-[7-(4-chloro-2-methyl-2-indazol-5-yl)-5H-pyrrolo[2,3-b]pyrazin-3-yl]-8-azabicyclo[3.2.1]octan-3-yl]methanamine], the IC50 amounted to 13 nM.

Turning to `Cn1cc2c(Cl)c(-c3c[nH]c4nc(N5CCC(N)(CO)CC5)cnc34)ccc2n1` [Example 7, {4-amino-1-[7-(4-chloro-2-methyl-2H-indazol-5-yl)-5H-pyrrolo[2,3-6]pyrazin-3-yl]piperidin-4-yl}methanol], the IC50 is 23 nM.

`Cc1nc2ccc(-c3c[nH]c4nc(N5[C@@H]6CC[C@H]5C[C@@H](N)C6)cnc34)c(Cl)c2s1` [Example 15, endo-8-[7-(7-chloro-2-methyl-1,3-benzothiazol-6-yl)-5H-pyrrolo[2,3-b]pyrazin-3-yl]-8-azabicyclo[3.2.1]octan-3-amine, methanesulfonic acid salt]: the IC50 stood at 5.9 nM.

`CN(C)c1nc2ccc(-c3n[nH]c4nc(N5C6CCC5[C@@H](F)[C@@H](N)C6)c(CO)nc34)c(Cl)c2s1` (stereo in doubt) [Example 123, {6-[(1S,2S,3S,5R)-3-amino-2-fluoro-8-azabicyclo[3.2.1]octan-8-yl]-3-[7-chloro-2-(dimethylamino)-1,3-benzothiazol-6-yl]-1H-pyrazolo[3,4-b]pyrazin-5-yl}methanol]: the IC50 is 9.7 nM.

In the case of `N[C@H]1C[C@H]2CC[C@@H](C1)N2c1cnc2c(-c3ccc4oc(=O)[nH]c4c3Cl)c[nH]c2n1` [Example 19, 5-{3-[endo-3-amino-8-azabicyclo[3.2.1]octan-8-yl]-5H-pyrrolo[2,3-b]pyrazin-7-yl}-4-chloro-2,3-dihydro-1,3-benzoxazol-2-one, hydrochloride salt], the half-inhibitory concentration (IC50) stood at 47 nM.

`CCOc1cnc2ccc(-c3n[nH]c4nc(N5[C@H]6CC[C@@H]5[C@@H](F)[C@@H](N)C6)c(CO)nc34)c(Cl)c2n1` [Example 138, {6-[(1R,2S,3S,5S)-3-amino-2-fluoro-8-azabicyclo[3.2.1]octan-8-yl]-3-(5-chloro-3-ethoxyquinoxalin-6-yl)-1H-pyrazolo[3,4-b]pyrazin-5-yl}methanol]: the half-inhibitory concentration (IC50) was found to be 13 nM.

As for `Cc1nc2c(-c3ccc4nn(C)c(Cl)c4c3Cl)n[nH]c2nc1N1[C@H]2CC[C@@H]1[C@@H](F)[C@@H](N)C2` [Example 93, (1R,2S,3S,5S)-8-[3-(3,4-Dichloro-2-methyl-2H-indazol-5-yl)-5-methyl-1H-pyrazolo[3,4-b]pyrazin-6-yl]-2-fluoro-8-azabicyclo[3.2.1]octan-3-amine], the IC50 is 3.6 nM.

In the case of `Cn1cc2c(Cl)c(-c3c[nH]c4nc(N5[C@@H]6CC[C@H]5C[C@@H](N)C6)cnc34)cc(F)c2n1` [Example 50, endo-8-[7-(4-chloro-7-fluoro-2-methyl-2H-indazol-5-yl)-5H-pyrrolo[2,3-b]pyrazin-3-yl]-8-azabicyclo[3.2.1]octan-3-amine], the IC50 was 31 nM.

As to `Cn1c(=O)sc2ccc(-c3c[nH]c4nc(N5CC[C@H](N)[C@H](F)C5)cnc34)c(Cl)c21` [Example 76, 5-{3-[(3R,4S)-4-amino-3-fluoropiperidin-1-yl]-5H-pyrrolo[2,3-b]pyrazin-7-yl}-4-chloro-3-methyl-2,3-dihydro-1,3-benzothiazol-2-one, hydrochloride], the IC50 came out at 440 nM.

For `Cn1nc2ccc(-c3c[nH]c4nc(N5[C@H]6CC[C@@H]5[C@@H](F)[C@@H](N)C6)c(CO)nc34)c(Cl)c2c1Cl` [Example 122, {3-[(1R,2S,3S,5S)-3-amino-2-fluoro-8-azabicyclo[3.2.1]octan-8-yl]-7-(3,4-dichloro-2-methyl-2H-indazol-5-yl)-5H-pyrrolo[2,3-b]pyrazin-2-yl}methanol], the IC50 amounted to 5.2 nM.

Turning to `Cn1nc2ccc(-c3n[nH]c4nc(N5[C@@H]6CC[C@H]5CNC6)c(CO)nc34)c(Cl)c2c1Cl` [Example 86, {6-[3,8-diazabicyclo[3.2.1]octan-8-yl]-3-(3,4-dichloro-2-methyl-2H-indazol-5-yl)-1H-pyrazolo[3,4-b]pyrazin-5-yl}methanol], the IC50 was found to be 7.2 nM.

As to `Cn1nc2ccc(-c3n[nH]c4nc(N5[C@H]6CC[C@@H]5[C@@H](F)[C@@H](N)C6)c(CO)nc34)c(F)c2c1Br` [Example 105, {6-[(1R,2S,3S,5S)-3-amino-2-fluoro-8-azabicyclo[3.2.1]octan-8-yl]-3-(3-bromo-4-fluoro-2-methyl-2H-indazol-5-yl)-1H-pyrazolo[3,4-b]pyrazin-5-yl}methanol], the half-maximal inhibitory concentration (IC50) worked out at 8.9 nM.

With `CCn1cc2c(Cl)c(-c3n[nH]c4nc(N5[C@H]6CC[C@@H]5[C@@H](F)[C@@H](N)C6)c(CO)nc34)ccc2n1` [Example 82, {6-[(1R,2S,3S,5S)-3-amino-2-fluoro-8-azabicyclo[3.2.1]octan-8-yl]-3-(4-chloro-2-ethyl-2H-indazol-5-yl)-1H-pyrazolo[3,4-b]pyrazin-5-yl}methanol], the IC50 amounted to 12 nM.

Staying with this assay, now noted: at 0.010 uM.
For the compound `Cc1c2c(Cl)c(-c3n[nH]c4nc(N5[C@H]6CC[C@@H]5[C@@H](F)[C@@H](N)C6)c(CO)nc34)ccc2nn1C` [Example 99, {6-[(1R,2S,3S,5S)-3-amino-2-fluoro-8-azabicyclo[3.2.1]octan-8-yl]-3-(4-chloro-2,3-dimethyl-2H-indazol-5-yl)-1H-pyrazolo[3,4-b]pyrazin-5-yl}methanol], the “SHP2 (percent at stated concentration)” value stood at 45%@0.010 uM.
